Source: patent US20090246519A1 (priority 2008, published 2009)

How the values were obtained:
Strains in all clusters = assay type: cell-based
[1] = system: Cluster 1 strains 1A, 13B, 30B; assay type: cell-based, Rhodotorula mucilaginosa; details: highest level of tellurite tolerated by strains when grown on LB-Marine plates
[2] = system: Cluster 2 strains 28A, 6A; assay type: cell-based, Bacillus sp.; details: highest level of tellurite tolerated by strains when grown on LB-Marine plates
Cluster 3 strain 14B = assay type: cell-based, Virgibacillus halodenitrificans

Compound | Resistance of strains to oxyanion (Strains in all clusters) | Maximum [TeO3^2−] [1] | Maximum [TeO3^2−] [2] | Growth of strain 14B in the presence of tellurite (Cluster 3 strain 14B; 150 μg Na2TeO3 ml^−1, on plates and in liquid cultures) | Maximum [TeO3^2−] (Cluster 3 strain 14B; highest level of tellurite tolerated by strains when grown on LB-Marine plates, cluster 3)
O=[Se](=O)(O)O [selenate] | resistant |  |  |  | 
O=[Te](=O)(O)O [tellurate] | resistant |  |  |  | 
arsenate | resistant |  |  |  | 
sodium tellurite [TeO3^2−] |  | 600 µg/mL | 300 µg/mL | grows poorly | 75 to 150 µg/mL
